# According to US20130129656A1, “"GREEN" DIESTER AMINES AND PERSONAL CARE PRODUCTS” (CRODA, INC., priority 2010, published 2013):
# What was measured:
# [1] = Wet combing evaluation of lotions (combing force reduction)
# Method: Lotions with and without Example 3 Quat were prepared and evaluated for combing force reduction.
# [2] = Warehouse storage stability of flaked samples in a stability oven at 95° F; assay type: physicochemical; conditions: flaked sample, stability oven set at 95° F, after 8 weeks
# Method: The diester compositions may be blended with, for example, alkylamidopropyl dimethylamines, such as Incromine BD supplied by Croda Inc., to yield a waxy flakeable or pastillatable composition with improved high temperature warehouse storage stability. Stability in this case being defined as resistance of the waxy particles from fusing together at elevated warehouse storage temperatures of about 95° F. Additional information on flakeability/pastillatability can be found in U.S. Pat. No. 6,638,497, the disclosure of which is hereby incorporated by reference herein.
# In some embodiments, it is desirable that the diesters of the claimed invention be either liquids or waxy solids in pastille form at room temperature for ease of use. […] By adding behenamidopropydimethylamine, the high temperature storage stability of the diester was increased, allowing for it to be warehoused or transported in conditions were the temperature can exceed 95° F. without the pastilles fusing together.
# [3] = Biodegradability via method OECD 301B; conditions: after 29 days
# Source text: In some embodiments, the compounds of the present invention are biodegradable as provided by standardized OECD 301B testing. The testing methodology is described in the “OECD Guideline for Testing Chemicals,” section 301, the disclosure of which is incorporated by reference. Specifically, the compounds of the present invention showing a biodegradability of at least about 50% according to the OECD 301B testing method. In some embodiments, the compounds of the present invention have a biodegradability of between about 50% to about 81% according to the OECD 301B testing method.
# (§1) Quat from example 3 was tested for biodegradability via method OECD 301B and Aquatic Toxicity via method OECD 202.
# daphnia magna = test: Aquatic toxicity via method OECD 202 (Daphnia sp. Acute Immobilization Test); assay type: in vivo; conditions: OECD 202, daphnia magna
# Method: In some embodiments, the compounds of the present invention are believed to have low aquatic toxicities. […] […] The testing methodology is described in “OECD Guideline for Testing of Chemicals,” section 202, the disclosure of which is incorporated by reference.
# as §1
# [4] = wet combing, lotion with 1.5 % Example 3 Quat, average of 10 tresses
substance,measurement,setting,value
Methosulfate QUAT of PPG-6 N-Methyldiethanolamine Di-Behenate [Example 3],Conditioning (in words),"[1]; lotion with the quat, versus lotion without",improved conditioning
same,% Change of Combing Force (gmf),[1]; [4],−84.62%
same,% Change of Total Work Done (Joules),[1]; [4],−88.76%
same,Warehouse storage stability (state of flakes),[2],fused together
same,Biodegraded,[3],67%
same,48 hour EC50 (aquatic toxicity),daphnia magna,> 100 µg/mL
